Source: patent US20030216257A1, “1-aryl-4-alkyl halide-2(1h)-pyridones and their use as herbicides” (priority 2000, published 2003)

What was measured:
Test in all cases: Greenhouse experiments, herbicidal action (pre-/post-emergence treatment)
Assay type in all cases: in vivo
Conditions in all cases: post-emergence rate 0.0313 and 0.0156 kg of a.S./ha, scale 0 to 100
[1] = test system: AMARE (redroot pigweed)
Excerpt: (§1) The culture containers used were plastic pots with loamy sand containing approximately 3.0% of humus as the substrate. The seeds of the test plants were sown separately for each species.
(§2) For the pre-emergence treatment, the active compounds, which had been suspended or emulsified in water, were applied directly after seeding by means of finely distributing nozzles. The containers were irrigated gently to promote germination and growth and subsequently covered with transparent plastic hoods until the plants had taken root. This cover causes uniform germination of the test plants unless this was not adversely affected by the active compounds.
(§3) For the post-emergence treatment, the test plants were initially grown to a height of 3 to 15 cm, depending on the habit, and then treated with the active compounds which had been suspended or emulsified in water. To this end, the test plants were either sown directly and cultivated in the same containers, or they were initially cultivated separately as seedlings and transplanted into the test containers a few days prior to the treatment. The application rate for the post-emergence treatment was 0.0313 and 0.0156 kg of a. S./ha.
(§4) The plants were kept at temperatures of 10-25° C. and 20-35° C., depending on the species. The test period extended over 2 to 4 weeks. During this time, the plants were tended, and their reaction to the individual treatments was evaluated.
(§5) Evaluation was carried out using a scale from 0 to 100. 100 means no emergence of the plants, or complete destruction of at least the above-ground parts, and 0 means no damage or normal course of growth.
(§6) The plants used in the greenhouse experiments were of the following species: […]

[2] = test system: SETFA (giant foxtail)
Excerpt: as §1, §2, §3, §4, §5, §6

[3] = test system: COMBE (dayflower)
Excerpt: as §1, §2, §3, §4, §5, §6

[4] = test system: GALAP (catchweed bedstraw)
Excerpt: as §1, §2, §3, §4, §5, §6

[5] = test system: ABUTH (velvet leaf)
Excerpt: as §1, §2, §3, §4, §5, §6

Measured: herbicidal activity against harmful plant

CC(C)OC(=O)c1cc(-n2c(Cl)cc(C(F)(F)F)cc2=O)c(F)cc1Cl [Example 1, Isopropyl 2-Chloro-5-[2-chloro-6-oxo-4-(trifluoromethyl)-1-(6H)-pyridinyl]-4-fluorobenzoate]
very good activity: all assays above
